Laboratory results as given in patent US8952128B2, “Somatostatin-dopamine chimeric analogs” (priority 2012, dated 2015).
Read-outs that look alike come from different tables or passages of the source. Numbered stars: 1 amine (or outer) side, 2 acyl side, 3 side chain; on linkers, the order of the positions; unused ones are H or OH. Bridge positions count the residues as written; N and C are the ends. Square brackets hold non-standard residues; d marks the D form. Peptide text beside a SMILES is read from it. * marks the point of attachment. X1 = CN1C[C@H](CSCCN(CCSC[C@@H]2C[C@@H]3c4cccc5[nH]cc(c45)C[C@H]3N(C)C2)[C@H](CCCCN[*:2])C(=O)[*:1])C[C@@H]2c3cccc4[nH]cc(c34)C[C@H]21; X2 = CN1C[C@H](CSCC(=O)*)C[C@@H]2c3cccc4[nH]cc(c34)C[C@H]21; Phe(4-F) = N[C@@H](Cc1ccc(F)cc1)C(=O)O; 4Pal = N[C@@H](Cc1ccncc1)C(=O)O

Experiments:
[1] = biological target: hDRD2 (Homo sapiens (Human), UniProt P14416); test: cell-based; details: for Emax: read-out: hDRD2 % Emax ± SEM
Experimental: (§1) The ability of select compounds according to the present invention to activate hSSTR2 and hDRD2 was determined by the intracellular calcium mobilization assay using FLIPR Calcium 4 assay kit (Molecular Devices).
(§2) Cells expressing hSSTR2 or hDRD2 were plated in 384-well microplates in tissue culture media and incubated for 16-24 hours at 37° C. in a humidified atmosphere with 5% CO2. Medium was replaced by loading buffer containing Hank's buffered saline, 20 mM HEPES, 2.5 mM probenecid and Calcium 4 dye, and the plates were incubated at 37° C. for 60 minutes.

[2] = biological target: hSSTR2 (Homo sapiens (Human), UniProt P30874); test: Intracellular calcium mobilization assay (FLIPR Calcium 4), hSSTR2; assay type: cell-based; details: for Emax: read-out: hSSTR2 % Emax ± SEM; for improvement in EC50 over Reference Compound A: Student's t-test, one-tailed, p <0.05; for improvement in EC50 and/or % Emax over Reference Compound B: calcium mobilization;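 on all read-outs here: agonist activity read as intracellular calcium rise in cells expressing human SSTR2, loaded with a calcium-sensitive dye for 60 min at 37 °C, measured by FLIPR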
Chain of hSSTR2 (P30874 whole entry): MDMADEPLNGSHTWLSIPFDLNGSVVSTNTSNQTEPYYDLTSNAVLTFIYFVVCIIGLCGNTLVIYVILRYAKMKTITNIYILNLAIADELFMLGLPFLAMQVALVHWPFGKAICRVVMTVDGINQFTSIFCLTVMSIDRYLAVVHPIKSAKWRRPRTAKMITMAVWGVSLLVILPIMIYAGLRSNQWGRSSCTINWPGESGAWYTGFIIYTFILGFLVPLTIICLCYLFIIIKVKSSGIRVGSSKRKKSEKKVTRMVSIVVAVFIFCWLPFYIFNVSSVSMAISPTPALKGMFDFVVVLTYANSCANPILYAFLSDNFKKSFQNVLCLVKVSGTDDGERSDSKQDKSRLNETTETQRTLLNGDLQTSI
Experimental: as §1, §2

[3] = maximal effect in percentage of the maximal effect of SRIF-14

Row | Compound | Emax [2] [%] | other results
1 | CC(=O)N(CCC(=O)NC(CN[C@@H]1CCCCNC(=O)[C@H](Cc2ccc(F)cc2)NC(=O)[C@H]([C@@H](C)O)NC(=O)[C@H](CCCCN)NC(=O)[C@@H](Cc2c[nH]c3ccccc23)NC(=O)[C@H](Cc2ccccc2)NC(=O)[C@H](Cc2ccccc2)NC(=O)[C@H](CCCNC(=N)N)NC1=O)Cc1ccc(O)cc1)C[C@@H]1C[C@@H]2c3cccc4[nH]cc(c34)C[C@H]2N(C)C1 (single isomer, unassigned) [Compound 27, 3-[N-acetyl-N-(D-6-methyl-8β-ergolinylmethyl)]-aminopropionyl-Tyr-psi(CH2NH)-cyclo(DLys-Arg-Phe-Phe-DTrp-Lys-Thr-4FPhe)] | 95.9 ± 2.4 | EC50 [1]: 50.7 ± 6.8 nM; EC50 [2]: 11.4 ± 2 nM
2 | CC(=O)N(CCCNC(CN[C@@H]1CCCCNC(=O)[C@H](Cc2ccc(F)cc2)NC(=O)[C@H]([C@@H](C)O)NC(=O)[C@H](CCCCN)NC(=O)[C@@H](Cc2c[nH]c3ccccc23)NC(=O)[C@H](Cc2ccccc2)NC(=O)[C@H](Cc2ccccc2)NC(=O)[C@H](CCCNC(=N)N)NC1=O)Cc1ccc(O)cc1)C[C@@H]1C[C@@H]2c3cccc4[nH]cc(c34)C[C@H]2N(C)C1 (single isomer, unassigned) [Compound 28A, 3-[N-acetyl-N-(D-6-methyl-8β-ergolinylmethyl)]-aminopropionyl-psi(CH2NH)-Tyr-psi(CH2NH)-cyclo(DLys-Arg-Phe-Phe-DTrp-Lys-Thr-4FPhe)] | 109 ± 20 | EC50 [1]: 65.5 ± 3.6 nM; EC50 [2]: 14.9 ± 6.3 nM
3 | C[C@@H](O)[C@@H]1NC(=O)[C@H](CCCCN)NC(=O)[C@@H](Cc2c[nH]c3ccccc23)NC(=O)[C@H](Cc2ccccc2)NC(=O)[C@H](Cc2ccccc2)NC(=O)[C@H](CCCNC(=N)N)NC(=O)[C@H](NCCC[C@@H]2C[C@@H]3c4cccc5[nH]cc(c45)C[C@H]3N(C)C2)CCCCNC(=O)[C@H](Cc2ccc(F)cc2)NC1=O [Compound 1, (D-6-methyl-8β-ergolinyl)-propionyl-psi(CH2NH)-cyclo(DLys-Arg-Phe-Phe-DTrp-Lys-Thr-4FPhe)] | 98.7 | Emax [1]: 102.1 ± 0.4%
4 | C[C@@H](O)[C@@H]1NC(=O)[C@H](CCCCN)NC(=O)[C@@H](Cc2c[nH]c3ccccc23)NC(=O)[C@H](Cc2ccccc2)NC(=O)[C@H](Cc2ccccc2)NC(=O)[C@H](CCCNC(=N)N)NC(=O)[C@H](NCCSC[C@@H]2C[C@@H]3c4cccc5[nH]cc(c45)C[C@H]3N(C)C2)CCCCNC(=O)[C@H](Cc2ccc(F)cc2)NC1=O [Compound 6, Dop1-psi(CH2NH)-cyclo(DLys-Arg-Phe-Phe-DTrp-Lys-Thr-4FPhe)] | 99.1 ± 0.6 | Emax [1]: 88.3 ± 5.1%; improvement in EC50 over Reference Compound A [2]: statistically significant improvement
5 | C[C@@H](O)[C@@H]1NC(=O)[C@H](CCCCN)NC(=O)[C@@H](Cc2c[nH]c3ccccc23)NC(=O)[C@H](Cc2ccncc2)NC(=O)[C@H](Cc2ccccc2)NC(=O)[C@H](CCCNC(=N)N)NC(=O)[C@H](NCCSC[C@@H]2C[C@@H]3c4cccc5[nH]cc(c45)C[C@H]3N(C)C2)CCCCNC(=O)[C@H](Cc2ccc(O)cc2)NC1=O [Compound 7, Dop1-psi(CH2NH)-cyclo(DLys-Arg-Phe-4Pal-DTrp-Lys-Thr-Tyr)] | 96.9 ± 2.5 | Emax [1]: 102 ± 5%; improvement in EC50 over Reference Compound A [2]: statistically significant improvement
6 | CC(=O)N(CCCN(C(C)=O)[C@@H]1CCCCNC(=O)[C@H](Cc2ccc(F)cc2)NC(=O)[C@H]([C@@H](C)O)NC(=O)[C@H](CCCCN)NC(=O)[C@@H](Cc2c[nH]c3ccccc23)NC(=O)[C@H](Cc2ccccc2)NC(=O)[C@H](Cc2ccccc2)NC(=O)[C@H](CCCNC(=N)N)NC1=O)C[C@@H]1C[C@@H]2c3cccc4[nH]cc(c34)C[C@H]2N(C)C1 [Compound 28, 3-[N-acetyl-N-(D-6-methyl-8β-ergolinylmethyl)]-aminopropionyl-psi(CH2NAc)-cyclo(DLys-Arg-Phe-Phe-DTrp-Lys-Thr-4FPhe)] | 98.7 ± 2 | –
7 | C[C@@H](O)[C@@H]1NC(=O)[C@H](CCCCN)NC(=O)[C@@H](Cc2c[nH]c3ccccc23)NC(=O)[C@H](Cc2ccncc2)NC(=O)[C@H](Cc2ccccc2)NC(=O)[C@H](CCCNC(=N)N)NC(=O)[C@H](N(CCSC[C@@H]2C[C@@H]3c4cccc5[nH]cc(c45)C[C@H]3N(C)C2)CCSC[C@@H]2C[C@@H]3c4cccc5[nH]cc(c45)C[C@H]3N(C)C2)CCCCNC(=O)[C@H](Cc2ccccc2)NC1=O [Compound 29, bis[Dop1-psi(CH2N)]-cyclo(DLys-Arg-Phe-4Pal-DTrp-Lys-Thr-Phe)] (RF[4Pal][dW]KTF; linker N-C via X1) | 97 ± 4.9 | improvement in EC50 over Reference Compound A [2]: statistically significant improvement
8 | CC(=O)N(CCCN[C@@H]1CCCCNC(=O)[C@H](Cc2ccc(F)cc2)NC(=O)[C@H]([C@@H](C)O)NC(=O)[C@H](CCCCN)NC(=O)[C@@H](Cc2c[nH]c3ccccc23)NC(=O)[C@H](Cc2ccccc2)NC(=O)[C@H](Cc2ccccc2)NC(=O)[C@H](CCCNC(=N)N)NC1=O)C[C@@H]1C[C@@H]2c3cccc4[nH]cc(c34)C[C@H]2N(C)C1 [Compound 29A, 3-[N-acetyl-(D-6-methyl-8β-ergolinylmethyl)]-aminopropionyl-psi(CH2NH)-cyclo(DLys-Arg-Phe-Phe-DTrp-Lys-Thr-4FPhe)] | 100 ± 23.2 | –
9 | C[C@@H](O)[C@@H]1NC(=O)[C@H](CCCCN)NC(=O)[C@@H](Cc2c[nH]c3ccccc23)NC(=O)[C@H](Cc2ccccc2)NC(=O)[C@H](Cc2ccccc2)NC(=O)[C@H](CCCNC(=N)N)NC(=O)[C@@H](NC[C@H](Cc2ccc(O)cc2)NC(=O)CSC[C@@H]2C[C@@H]3c4cccc5[nH]cc(c45)C[C@H]3N(C)C2)CCCCNC(=O)[C@H](Cc2ccccc2)NC1=O [Compound 31, Dop1-Tyr-psi(CH2NH)-cyclo(Lys-Arg-Phe-Phe-DTrp-Lys-Thr-Phe)] | 85.1 ± 4.7 | –
10 | C[C@@H](O)[C@@H]1NC(=O)[C@H](CCCCN)NC(=O)[C@@H](Cc2c[nH]c3ccccc23)NC(=O)[C@H](Cc2ccccc2)NC(=O)[C@H](Cc2ccccc2)NC(=O)[C@H](CCCNC(=N)N)NC(=O)[C@H](NC[C@H](Cc2ccc(O)cc2)NC(=O)CSC[C@@H]2C[C@@H]3c4cccc5[nH]cc(c45)C[C@H]3N(C)C2)CCCCNC(=O)[C@H](Cc2ccccc2)NC1=O [Compound 32, Dop1-Tyr-psi(CH2NH)-cyclo(DLys-Arg-Phe-Phe-DTrp-Lys-Thr-Phe)] | 87.5 ± 4.3 | improvement in EC50 and/or % Emax over Reference Compound B [2]: statistically significant improvement
11 | C[C@@H](O)[C@@H]1NC(=O)[C@H](CCCCN)NC(=O)[C@@H](Cc2c[nH]c3ccccc23)NC(=O)[C@H](Cc2ccccc2)NC(=O)[C@H](Cc2ccccc2)NC(=O)[C@H](CCCNC(=N)N)NC(=O)[C@H](NC[C@H](Cc2ccc(O)cc2)NC(=O)CSC[C@@H]2C[C@@H]3c4cccc5[nH]cc(c45)C[C@H]3N(C)C2)CCCCNC(=O)[C@H](Cc2ccc(O)cc2)NC1=O [Compound 33, Dop1-Tyr-psi(CH2NH)-cyclo(DLys-Arg-Phe-Phe-DTrp-Lys-Thr-Tyr)] | 95.7 ± 5.1 | improvement in EC50 and/or % Emax over Reference Compound B [2]: statistically significant improvement
12 | C[C@@H](O)[C@@H]1NC(=O)[C@H](CCCCN)NC(=O)[C@@H](Cc2c[nH]c3ccccc23)NC(=O)[C@H](Cc2ccccc2)NC(=O)[C@H](Cc2ccccc2)NC(=O)[C@H](CCCNC(=N)N)NC(=O)[C@H](NC(=O)CSC[C@@H]2C[C@@H]3c4cccc5[nH]cc(c45)C[C@H]3N(C)C2)CCCCNC(=O)[C@H](Cc2ccc(F)cc2)NC1=O [Compound 34, Dop1-cyclo(DLys-Arg-Phe-Phe-DTrp-Lys-Thr-4FPhe)] (X2-[dK]RFF[dW]KT[Phe(4-F)]; lactam 1-C) | 95.1 ± 7.1 | –
13 | C[C@@H](O)[C@@H]1NC(=O)[C@H](CCCCN)NC(=O)[C@@H](Cc2c[nH]c3ccccc23)NC(=O)[C@H](Cc2ccncc2)NC(=O)[C@H](Cc2ccccc2)NC(=O)[C@H](CCCNC(=N)N)NC(=O)[C@H](N(CCSC[C@@H]2C[C@@H]3c4cccc5[nH]cc(c45)C[C@H]3N(C)C2)CCSC[C@@H]2C[C@@H]3c4cccc5[nH]cc(c45)C[C@H]3N(C)C2)CCCCNC(=O)[C@H](Cc2ccc(O)cc2)NC1=O [Compound 35, bis[Dop1-psi(CH2N)]-cyclo(DLys-Arg-Phe-4Pal-DTrp-Lys-Thr-Tyr)] (RF[4Pal][dW]KTY; linker N-C via X1) | – | Emax [2, 3]: 91.2 ± 11%
14 | C[C@@H](O)[C@@H]1NC(=O)[C@H](CCCCN)NC(=O)[C@@H](Cc2c[nH]c3ccccc23)NC(=O)[C@H](Cc2ccccc2)NC(=O)[C@H](Cc2ccccc2)NC(=O)[C@H](CCCNC(=N)N)NC(=O)[C@H](N(CCSC[C@@H]2C[C@@H]3c4cccc5[nH]cc(c45)C[C@H]3N(C)C2)CCSC[C@@H]2C[C@@H]3c4cccc5[nH]cc(c45)C[C@H]3N(C)C2)CCCCNC(=O)[C@H](Cc2ccc(F)cc2)NC1=O [Compound 39, bis[Dop1-psi(CH2N)]-cyclo(DLys-Arg-Phe-Phe-DTrp-Lys-Thr-4FPhe)] (RFF[dW]KT[Phe(4-F)]; linker N-C via X1) | 87.1 ± 4.7 | –
15 | C[C@@H](O)[C@@H]1NC(=O)[C@H](CCCCN)NC(=O)[C@@H](Cc2c[nH]c3ccccc23)NC(=O)[C@H](Cc2ccccc2)NC(=O)[C@H](Cc2ccccc2)NC(=O)[C@H](CCCNC(=N)N)NC(=O)[C@H](NCCCS(=O)(=O)C[C@@H]2C[C@@H]3c4cccc5[nH]cc(c45)C[C@H]3N(C)C2)CCCCNC(=O)[C@H](Cc2ccc(F)cc2)NC1=O [Compound 48, (D-6-methyl-8β-ergolinylmethyl)-sulfonylpropyl-cyclo(DLys-Arg-Phe-Phe-DTrp-Lys-Thr-4FPhe)] | 95.5 ± 11.9 | –
16 | Dop1-cyclo(DLys-Arg-Phe-Phe-DTrp-Lys-Thr-Phe) [Compound 44] | – | hSSTR2 % Emax ± SEM [2, 3]: 97.1 ± 5.9%
